Patent publication US20100041089A1, “IMPROVED METHOD FOR DETECTING CHEMICAL […]” (priority 2006, published 2010)

Tested on: yeast genes (expressed mRNA)
Assay: DNA chip measurement of expressed mRNA of yeast genes after culture with a toxic chemical substance
Format: cell-based, Saccharomyces cerevisiae S288C
Outline: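 Fluorescence ratio, treated over untreated, read by chip scanner; ratio of two or more counted significant. Cells: S288C yeast, YPD, 25° C, chemical added at log phase for 2 h at growth-inhibiting, sublethal level. Cy3/Cy5-labeled cDNA from oligo-dT-purified mRNA.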

## CN(C)C(=S)SSC(=S)N(C)C [(10), Tetramethylthiuram disulfide]
Yeast gene YFL010C, cultured two hours with substance
  The level of expressed mRNA in the presence of chemical substance/The level of expressed mRNA in the absence of chemical substance: 1.4
Yeast gene YFL024C, cultured two hours with substance
  The level of expressed mRNA in the presence of chemical substance/The level of expressed mRNA in the absence of chemical substance: 0.5
Yeast gene YFL032W, cultured two hours with substance
  The level of expressed mRNA in the presence of chemical substance/The level of expressed mRNA in the absence of chemical substance: 0.6
Yeast gene YFL056C
  The level of expressed mRNA in the presence of chemical substance/The level of expressed mRNA in the absence of chemical substance: 31.3
Yeast gene YFL056C, cultured for two hours with substance
  The level of expressed mRNA in the presence of chemical substance/The level of expressed mRNA in the absence of chemical substance: 31.3
Yeast gene YFL057C
  The level of expressed mRNA in the presence of chemical substance/The level of expressed mRNA in the absence of chemical substance: 46.1
Yeast gene YFL057C, cultured for two hours with substance
  The level of expressed mRNA in the presence of chemical substance/The level of expressed mRNA in the absence of chemical substance: 46.1
Yeast gene YGL037C, cultured two hours with substance
  The level of expressed mRNA in the presence of chemical substance/The level of expressed mRNA in the absence of chemical substance: 1.6
Yeast gene YGL046W, cultured two hours with substance
  The level of expressed mRNA in the presence of chemical substance/The level of expressed mRNA in the absence of chemical substance: 4.5
Yeast gene YGL047W, cultured two hours with substance
  The level of expressed mRNA in the presence of chemical substance/The level of expressed mRNA in the absence of chemical substance: 5.7
Yeast gene YGL053W, cultured two hours with substance
  The level of expressed mRNA in the presence of chemical substance/The level of expressed mRNA in the absence of chemical substance: 2.4
Yeast gene YGL121C, cultured two hours with substance
  The level of expressed mRNA in the presence of chemical substance/The level of expressed mRNA in the absence of chemical substance: 15.0
Yeast gene YGL136C, cultured two hours with substance
  The level of expressed mRNA in the presence of chemical substance/The level of expressed mRNA in the absence of chemical substance: 1.0
Yeast gene YGL184C
  The level of expressed mRNA in the presence of chemical substance/The level of expressed mRNA in the absence of chemical substance: 66.8
Yeast gene YGL193C, cultured two hours with substance
  The level of expressed mRNA in the presence of chemical substance/The level of expressed mRNA in the absence of chemical substance: 1.0
Yeast gene YGL199C, cultured two hours with substance
  The level of expressed mRNA in the presence of chemical substance/The level of expressed mRNA in the absence of chemical substance: 0.1
Yeast gene YGR101W, cultured two hours with substance
  The level of expressed mRNA in the presence of chemical substance/The level of expressed mRNA in the absence of chemical substance: 1.4
Yeast gene YGR110W, cultured two hours with substance
  The level of expressed mRNA in the presence of chemical substance/The level of expressed mRNA in the absence of chemical substance: 4.8
Yeast gene YGR130C, cultured two hours with substance
  The level of expressed mRNA in the presence of chemical substance/The level of expressed mRNA in the absence of chemical substance: 1.5
Yeast gene YGR142W, cultured two hours with substance
  The level of expressed mRNA in the presence of chemical substance/The level of expressed mRNA in the absence of chemical substance: 12.2
Yeast gene YGR154C, cultured two hours with substance
  The level of expressed mRNA in the presence of chemical substance/The level of expressed mRNA in the absence of chemical substance: 9.1
Yeast gene YGR213C
  The level of expressed mRNA in the presence of chemical substance/The level of expressed mRNA in the absence of chemical substance: 6.9
Yeast gene YGR221C, cultured two hours with substance
  The level of expressed mRNA in the presence of chemical substance/The level of expressed mRNA in the absence of chemical substance: 0.7
Yeast gene YHL040C (detoxification protein gene)
  The level of expressed mRNA in the presence of chemical substance/The level of expressed mRNA in the absence of chemical substance: 11.3
Yeast gene YHL040C (transport facilitation protein gene)
  The level of expressed mRNA in the presence of chemical substance/The level of expressed mRNA in the absence of chemical substance: 11.3
Yeast gene YHL047C (detoxification protein gene)
  The level of expressed mRNA in the presence of chemical substance/The level of expressed mRNA in the absence of chemical substance: 11.9
Yeast gene YHL047C (transport facilitation protein gene)
  The level of expressed mRNA in the presence of chemical substance/The level of expressed mRNA in the absence of chemical substance: 11.9
Yeast gene YHR029C, cultured two hours with substance
  The level of expressed mRNA in the presence of chemical substance/The level of expressed mRNA in the absence of chemical substance: 8.6
Yeast gene YHR071W
  The level of expressed mRNA in the presence of chemical substance/The level of expressed mRNA in the absence of chemical substance: 7.2
Yeast gene YHR116W, cultured two hours with substance
  The level of expressed mRNA in the presence of chemical substance/The level of expressed mRNA in the absence of chemical substance: 2.7
Yeast gene YHR138C, cultured two hours with substance
  The level of expressed mRNA in the presence of chemical substance/The level of expressed mRNA in the absence of chemical substance: 4.6
Yeast gene YHR139C
  The level of expressed mRNA in the presence of chemical substance/The level of expressed mRNA in the absence of chemical substance: 46.6
Yeast gene YHR199C, cultured two hours with substance
  The level of expressed mRNA in the presence of chemical substance/The level of expressed mRNA in the absence of chemical substance: 6.0
Yeast gene YIL023C, cultured two hours with substance
  The level of expressed mRNA in the presence of chemical substance/The level of expressed mRNA in the absence of chemical substance: 1.6
Yeast gene YIL024C, cultured two hours with substance
  The level of expressed mRNA in the presence of chemical substance/The level of expressed mRNA in the absence of chemical substance: 1.8
Yeast gene YIL041W, cultured two hours with substance
  The level of expressed mRNA in the presence of chemical substance/The level of expressed mRNA in the absence of chemical substance: 1.4
Yeast gene YIL087C, cultured two hours with substance
  The level of expressed mRNA in the presence of chemical substance/The level of expressed mRNA in the absence of chemical substance: 1.8
Yeast gene YIL102C, cultured two hours with the chemical substance
  The level of expressed mRNA in the presence of chemical substance/The level of expressed mRNA in the absence of chemical substance: 0.3
Yeast gene YIL117C, cultured two hours with substance
  The level of expressed mRNA in the presence of chemical substance/The level of expressed mRNA in the absence of chemical substance: 3.5
Yeast gene YIL167W
  The level of expressed mRNA in the presence of chemical substance/The level of expressed mRNA in the absence of chemical substance: 12.7
Yeast gene YIL168W
  The level of expressed mRNA in the presence of chemical substance/The level of expressed mRNA in the absence of chemical substance: 19.3
Yeast gene YIR038C (detoxification protein gene)
  The level of expressed mRNA in the presence of chemical substance/The level of expressed mRNA in the absence of chemical substance: 4.5
Yeast gene YJL020C, cultured two hours with substance
  The level of expressed mRNA in the presence of chemical substance/The level of expressed mRNA in the absence of chemical substance: 1.0
Yeast gene YJL057C, cultured two hours with substance
  The level of expressed mRNA in the presence of chemical substance/The level of expressed mRNA in the absence of chemical substance: 6.1
Yeast gene YJL066C, cultured two hours with substance
  The level of expressed mRNA in the presence of chemical substance/The level of expressed mRNA in the absence of chemical substance: 2.1
Yeast gene YJL082W, cultured two hours with substance
  The level of expressed mRNA in the presence of chemical substance/The level of expressed mRNA in the absence of chemical substance: 2.9
Yeast gene YJL100W, cultured two hours with the chemical substance
  The level of expressed mRNA in the presence of chemical substance/The level of expressed mRNA in the absence of chemical substance: 2.7
Yeast gene YJL108C, cultured two hours with substance
  The level of expressed mRNA in the presence of chemical substance/The level of expressed mRNA in the absence of chemical substance: 0.7
Yeast gene YJL149W, cultured two hours with substance
  The level of expressed mRNA in the presence of chemical substance/The level of expressed mRNA in the absence of chemical substance: 3.8
Yeast gene YJL151C, cultured two hours with substance
  The level of expressed mRNA in the presence of chemical substance/The level of expressed mRNA in the absence of chemical substance: 1.6
